Source: patent publication US20140072557A1, “MEDICINAL AGENT FOR SUPPRESSING MALIGNANT TUMOR METASTASIS” (priority 2011, published 2014)
Bridges are numbered along the chain shown (N, C = ends). Where no end group is shown, it is not given here.

How the values were obtained:
[1] = system: A549 cells; assay: EMT induced by TGF-β1 in A549 cells (morphology, quantitative RT-PCR); assay type: cell-based; conditions: final concentration 1 μM, A549 cells
Experimental: Using a 6-well dish, the A549 cells were cultured at 1×10^5 cells/well, and the culture medium was replaced with DMEM culture medium free from FBS the next day. After 24 hours of culture, the cells were used in the following experiment.
An ANP group (ANP solution was added (final concentration: 1 μM)) and a control group (the same amount of physiological saline was added) were prepared, and after 2 hours from the addition, TGF-β1 was added so that the final concentration would be 0.125, 0.25, 0.5, 1.0, and 2.0 ng/mL. After 24 hours had passed, the morphological change in the cells was observed under a microscope and photographed (FIG. 3).
Then, total RNA was collected using TRIZOL total RNA isolation reagent (made by Invitrogen), cDNA was synthesized using reverse transcriptase, and the mRNA levels of E-cadherin, N-cadherin, VEGF-A, PDGF-B, TNF-α, and IL-6 were measured by quantitative RT-PCR. It is known that in EMT, the expression of E-cadherin decreases while the expression of N-cadherin increases. The expression ratio of N-cadherin/E-cadherin is considered to be useful as an indicator of the degree of EMT.

[2] = target: T1, natriuretic peptide receptor GC-B (Homo sapiens, UniProt P20594); conditions: Furuya et al. 1992; cited from earlier work
T1 sequence (P20594 23-1047): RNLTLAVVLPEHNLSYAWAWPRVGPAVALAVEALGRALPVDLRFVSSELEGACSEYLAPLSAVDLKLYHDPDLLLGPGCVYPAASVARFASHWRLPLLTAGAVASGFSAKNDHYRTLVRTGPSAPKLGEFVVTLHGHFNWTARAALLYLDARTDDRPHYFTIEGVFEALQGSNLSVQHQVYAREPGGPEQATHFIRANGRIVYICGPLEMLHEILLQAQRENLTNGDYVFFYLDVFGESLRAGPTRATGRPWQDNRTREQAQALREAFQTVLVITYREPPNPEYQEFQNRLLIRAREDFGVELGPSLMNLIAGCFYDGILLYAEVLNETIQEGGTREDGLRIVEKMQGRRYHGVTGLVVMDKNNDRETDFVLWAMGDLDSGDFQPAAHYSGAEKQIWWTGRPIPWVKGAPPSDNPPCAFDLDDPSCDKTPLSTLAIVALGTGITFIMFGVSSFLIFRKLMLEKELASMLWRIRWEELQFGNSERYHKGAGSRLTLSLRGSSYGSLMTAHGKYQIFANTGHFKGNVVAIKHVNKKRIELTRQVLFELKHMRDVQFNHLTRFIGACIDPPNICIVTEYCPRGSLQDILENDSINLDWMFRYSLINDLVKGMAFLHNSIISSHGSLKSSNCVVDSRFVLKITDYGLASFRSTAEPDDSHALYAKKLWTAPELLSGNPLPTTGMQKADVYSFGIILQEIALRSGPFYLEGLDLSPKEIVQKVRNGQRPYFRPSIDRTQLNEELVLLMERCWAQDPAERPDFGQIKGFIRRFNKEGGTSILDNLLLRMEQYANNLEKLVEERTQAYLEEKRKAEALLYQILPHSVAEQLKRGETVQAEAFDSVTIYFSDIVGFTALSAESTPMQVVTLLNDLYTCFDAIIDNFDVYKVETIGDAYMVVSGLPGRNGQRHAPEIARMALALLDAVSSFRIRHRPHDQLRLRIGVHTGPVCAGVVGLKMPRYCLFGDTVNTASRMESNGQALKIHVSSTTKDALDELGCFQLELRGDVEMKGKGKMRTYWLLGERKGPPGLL

[3] = system: mouse melanoma B16-F10; assay: Mouse tail vein injection metastasis test, mouse melanoma B16-F10; assay type: in vivo, mice; conditions: 2.5 μg/kg/min by subcutaneous osmotic pump, 2 weeks
Experimental: 6-week-old male […] mice were used (purchased from Japan SLC, Inc.). Mouse melanoma B16-F10 was purchased from ATCC, and cultured in DMEM (Life Technologies Corp.) containing 10% FCS under 5% CO2 at 37° C. The cells in a subconfluent state were treated with EDTA-trypsin, centrifuged, and then suspended in serum free DMEM so as to be 5×10^6 cells/mL. The melanoma cell suspension (100 μL/mouse, 5×10^5 cells) was injected to the tail vein of the mice. The osmotic pumps used were MODEL2002 (for 14-day administration) made by ALZET (Cupertino, Calif,.).
Mice into which an osmotic pump containing 0.9% physiological saline was subcutaneously implanted in the back were assigned to the control group. Similarly, an osmotic pump containing hANP prepared for administration at 0.5 μg/kg/min was subcutaneously implanted into each mouse in the ANP group, an osmotic pump containing mouse BNP prepared for administration at 0.5 μg/kg/min was subcutaneously implanted into each mouse in the BNP group, and an osmotic pump containing hCNP-22 prepared for administration at 2.5 μg/kg/min was subcutaneously implanted into each mouse in the CNP group. To the mice in the sildenafil group, sildenafil citrate at a dosage of 20 mg/kg was intraperitoneally administered once daily. […]

[4] = system: A549 cells; assay: Intracellular cGMP level in A549 cells on natriuretic peptide stimulus; assay type: cell-based; conditions: 1×10^−11 M to 1×10^−6 M, 10 minutes
Experimental: The A549 cells were cultured in a 24-well dish at 4×10^4 cells/well, and the culture medium was replaced with DMEM culture medium free from FCS the next day. To the culture medium, solutions of hANP, hBNP, and hCNP (final concentration: ten-fold serial dilution from 1×10^−11 M to 1×10^−6 M, the same amount of physiological saline was used as a control) were separately added. After 10 minutes passed, 400 μL of cooled 70% ethanol (containing 0.1 N hydrochloric acid) was added, and ultrasonication was performed for a short time. The treated solution was lyophilized, and the cGMP level was measured using Cyclic GMP Assay kit (made by Yamasa Corp.).

Substance: LKL-ANP: a mutant in which the amino acids at positions 10 to 12 of hANP are replaced with LKL (SLRRSSCFGLKLDRIGAQSGLGCNSFRY; ends and bridges not checked; cysteine pairing not given here; UniProt P01160 124-151, looked up, variant G10L R11K M12L)
- ratio of suppression of EMT induced by TGF-β in terms of E-cad/Ncad [1]: 52.9%

Substance: hCNP6-22: peptide consisting of amino acids from position 6 to position 22 of SEQ ID NO: 7 (ring structure only) (CFGLKLDRIGSMSGLGC; disulfide 1-17 (inferred); listed as Homo sapiens)
- GC-B agonist activity compared with hCNP-22 [2]: comparable to that of hCNP-22

Substance: hCNP: 22-amino acid CNP-22 of human origin, GLSKGCFGLK LDRIGSMSGL GC (SEQ ID NO: 7), GC-B agonist (GLSKGCFGLKLDRIGSMSGLGC; listed as Homo sapiens)
- lung metastasis of melanoma (number of nodules) [3]: significantly suppressed
- intracellular cGMP level [4]: did not show such increase

Substance: nesiritide [hBNP]
- intracellular cGMP level [4]: increased the intracellular cGMP level of the A549 cells in a concentration-dependent manner
